Laboratory results: patent US10206397B2, “N-acylimino heterocyclic compounds” (BASF SE, priority 2013, dated 2019)

What was measured:
Type in all cases: in vivo
[1] = system: Green Soldier Stink Bug (Nezara viridula); test: Green soldier stink bug spray test on soybean pods; settings: 120 h, sprayed soybean pods, 3rd instar, 5 days, read-out: mortality in comparison with untreated controls
Experimental: B.10 Green Soldier Stink Bug (Nezara viridula)
The active compound is dissolved at the desired concentration in a mixture of 1:1 (vol:vol) distilled water:aceteone. Surfactant (Kinetic HV) is added at a rate of 0.01% (vol/vol). The test solution is prepared at the day of use.
Soybean pods were placed in microwavable plastic cups lined with moist filter paper and inoculated with ten 3rd instar N. viridula. Using a hand atomizer, approximately 2 ml solution is sprayed into each cup. Treated cups were kept at about 28-29° C. and relative humidity of about 50-60%. Percent mortality was recorded after 5 days.

[2] = system: vetch aphid (Megoura viciae); test: Vetch aphid contact/systemic test on broad bean leaf disks; settings: foliar, 120 h, read-out: mortality in comparison with untreated controls
Experimental: B.2 Vetch Aphid (Megoura viciae)
For evaluating control of vetch aphid (Megoura viciae) through contact or systemic means the test unit consisted of 24-well-microtiter plates containing broad bean leaf disks.
The compounds were formulated using a solution containing 75% v/v water and 25% v/v DMSO. Different concentrations of formulated compounds were sprayed onto the leaf disks at 2.5 μl, using a custom built micro atomizer, at two replications.
After application, the leaf disks were air-dried and 5-8 adult aphids were placed on the leaf disks inside the microtiter plate wells. The aphids were then allowed to suck on the treated leaf disks and were incubated at about 23±1° C. and about 50±5% relative humidity for 5 days. Aphid mortality and fecundity was then visually assessed.

[3] = system: green peach aphid (Myzus persicae); test: Green peach aphid systemic test, artificial diet in 96-well microtiter plates; settings: 72 h, read-out: mortality in comparison with untreated controls
From the text: B.1 Green Peach Aphid (Myzus persicae)
For evaluating control of green peach aphid (Myzus persicae) through systemic means, the test unit consists of 96-well-microtiter plates containing liquid artificial diet under an artificial membrane.
The compounds are formulated using a solution containing 75% v/v water and 25% v/v DMSO. Different concentrations of formulated compounds are pipetted into the aphid diet, using a custom built pipetter, at two replications.
After application, 5-8 adult aphids are placed on the artificial membrane inside the microtiter plate wells. The aphids are then allowed to suck on the treated aphid diet and incubated at about 23+1° C. and about 50+5% relative humidity for 3 days. Aphid mortality and fecundity is then visually assessed.

[4] = system: Rice Green Leafhopper (Nephotettix virescens); test: Rice green leafhopper spray test on rice seedlings; settings: 72 h, read-out: mortality in comparison with untreated controls
Experimental: B.7 Rice Green Leafhopper (Nephotettix virescens)
(§1) Rice seedlings are cleaned and washed 24 hours before spraying. The active compounds are formulated in 50:50 acetone:water (vol:vol), and 0.1% vol/vol surfactant (EL 620) is added. Potted rice seedlings are sprayed with 5 ml test solution, air dried, placed in cages and inoculated with 10 adults. Treated rice plants are kept at about 28-29° C. and relative humidity of about 50-60%. Percent mortality is recorded after 72 hours.

[5] = system: Orchid Thrips (dichromothrips corbetti); test: Orchid thrips floral-immersion test; settings: 72 h, read-out: mortality in comparison with untreated controls
Experimental: B.6 Orchid Thrips (dichromothrips corbetti)
Dichromothrips corbetti adults used for bioassay are obtained from a colony maintained continuously under laboratory conditions. For testing purposes, the test compound is diluted in a 1:1 mixture of acetone:water (vol:vol), plus 0.01% vol/vol Alkamuls® EL 620 surfactant.
Thrips potency of each compound is evaluated by using a floral-immersion technique. Plastic petri dishes are used as test arenas. All petals of individual, intact orchid flowers are dipped into treatment solution and allowed to dry. Treated flowers are placed into individual petri dishes along with about 20 adult thrips. The petri dishes are then covered with lids. All test arenas are held under continuous light and a temperature of about 28° C. for duration of the assay. After 3 days, the numbers of live thrips are counted on each flower, and along inner walls of each petri dish. The percent mortality is recorded 72 hours after treatment.

[6] = system: Silverleaf Whitefly (bemisia argentifolii); test: Silverleaf whitefly spray test on cotton plants; settings: 72 h, read-out: mortality in comparison with untreated controls
From the text: B.5 Silverleaf Whitefly (bemisia argentifolii)
The active compounds are formulated in cyclohexanone as a 10,000 ppm solution supplied in tubes. The tubes are inserted into an automated electrostatic sprayer equipped with an atomizing nozzle and they serve as stock solutions for which lower dilutions are made in 50% acetone:50% water (v/v). A nonionic surfactant (Kinetic®) is included in the solution at a volume of 0.01% (v/v).
Cotton plants at the cotyledon stage (one plant per pot) are sprayed by an automated electrostatic plant sprayer equipped with an atomizing spray nozzle. The plants are dried in the sprayer fume hood and then removed from the sprayer. Each pot is placed into a plastic cup and about 10 to 12 whitefly adults (approximately 3-5 days old) are introduced. The insects are collected using an aspirator and a nontoxic Tygon® tubing connected to a barrier pipette tip. The tip, containing the collected insects, is then gently inserted into the soil containing the treated plant, allowing insects to crawl out of the tip to reach the foliage for feeding. Cups are covered with a reusable screened lid. […] Mortality is assessed 3 days after treatment, compared to untreated control plants.

[7] = system: Cowpea Aphid (Aphis craccivora); test: Cowpea aphid spray test on potted cowpea plants; settings: 72 h, read-out: mortality in comparison with untreated controls
Experimental: B.4 Cowpea Aphid (Aphis craccivora)
(§2) The active compound is dissolved at the desired concentration in a mixture of 1:1 (vol:vol) distilled water:acetone. Surfactant (Alkamuls® EL 620) is added at a rate of 0.1% (vol/vol). The test solution is prepared at the day of use.
Potted cowpea plants are colonized with approximately 50-100 aphids of various stages by manually transferring a leaf tissue cut from infested plant 24 hours before application. Plants are sprayed after the pest population has been recorded. Treated plants are maintained on light carts at about 28° C. Percent mortality is assessed after 72 hours.

[8] = system: Rice Brown Plant Hopper (Nilaparvata lugens); test: Rice brown plant hopper spray test on rice seedlings; settings: 72 h, read-out: mortality in comparison with untreated controls
Experimental: B.8 Rice Brown Plant Hopper (Nilaparvata lugens)
as §1, with “compounds is” for “compounds are”, “acetone:water (vol:vol)” for “acetone:water (vol:vol),”, “620) was” for “620) is”

[9] = system: Cotton aphid (Aphis gossypii); test: Cotton aphid spray test on potted plants; settings: 72 h, read-out: mortality in comparison with untreated controls
Experimental: B.3 Cotton aphid (Aphis gossypii)
as §2
Potted cowpea plants were colonized with approximately 50-100 aphids of various stages by manually transferring a leaf tissue cut from infested plant 24 hours before application. Plants were sprayed after the pest population has been recorded. Treated plants are maintained on light carts at about 28° C. Percent mortality was assessed after 72 hours.

[10] = system: Diamond Back Moth (Plutella xylostella); test: Diamond back moth cabbage leaf dip test; settings: foliar, 72 h, read-out: mortality in comparison with untreated controls
Experimental: B.9 Diamond Back Moth (Plutella xylostella)
The active compound is dissolved at the desired concentration in a mixture of 1:1 (vol:vol) distilled water:aceteone. Surfactant (Alkamuls® EL 620) is added at a rate of 0.1% (vol/vol). The test solution is prepared at the day of use.
Leaves of cabbage were dipped in test solution and air-dried. Treated leaves were placed in petri dish eslined with moist filter paper and inoculated with ten 3rd instar larvae. Mortality was recorded 72 hours after treatment. Feeding damages were also recorded using a scale of 0-100%.

SMILES | mortality at 500 ppm [1] [%] | mortality at 2500 ppm [2] [%] | mortality at 2500 ppm [3] [%] | mortality at 500 ppm [4] [%] | mortality at 500 ppm [5] [%] | mortality at 500 ppm [6] [%] | mortality at 500 ppm [7] [%] | mortality at 500 ppm [8] [%] | mortality at 500 ppm [9] [%] | mortality at 500 ppm [10] [%]
N#CCC(=O)/N=c1\ccccn1Cc1ccc(Cl)nc1 [I.A-1] | > 75 | ≥ 75 | ≥ 75 | ≥ 75 | ≥ 75 | ≥ 75 | ≥ 75 | ≥ 75 | > 75 | –
N#CC1(C(=O)/N=c2\ccccn2Cc2ccc(Cl)nc2)CC1 [I.B-1] | – | ≥ 75 | ≥ 75 | ≥ 75 | ≥ 75 | – | ≥ 75 | ≥ 75 | – | > 75
